Patent publication US10695341B2, “Compositions and methods for treating endometriosis” (UNIVERSITY OF SOUTH FLORIDA, priority 2014, dated 2020)

Experiments:
Type in all cases: in vivo, mouse
peritoneal macrophages = assay: Peritoneal macrophage flow cytometry (CD11b, F4/80); settings: HCQ-treated vs PBS-treated mice, p=0.0079
Protocol: The pellet obtained after centrifugation of the peritoneal fluid wash (see above) was utilized for macrophage staining. When necessary, red blood cell lysis was performed according to the manufacturer's protocol (eBioscience, San Diego, Calif.). The cell pellets were resuspended in 1 ml cold PBS and transferred to flow cytometry tubes. Samples were centrifuged for 1 min at 1,390 rpm. The supernatant was decanted and cells were resuspended in 100 μl of PBS. Cells were blocked using 0.5 μg of Mouse BD Fc, Block™ (#553141, BD Pharmingen, San Jose, Calif.) for 5 min on ice. The cells were incubated in 0.4 μg of APC Rat anti-mouse CD11b clone M1/70 (#553312, BD Pharmingen, San Jose, Calif.) and anti mPE-F4/80/EMR1 (# FAB5580C, R&D Systems, Minneapolis, Minn.)) at room temperature for 30 min, protected from light. After incubation, 700 μl of PBS was added to each tube and centrifuged for 1 min at 4° C. The supernatant was decanted, and the cells were resuspended in 300 μl in PBS and analyzed by flow cytometry.

endometriotic lesions = assay: Immunohistochemistry of lesions (CK8, ERα, PR); settings: PR immunohistochemical staining, lesions from HCQ-treated mice
Protocol: Collected samples were immediately preserved in 10% neutral buffered formalin at the animal facility. Samples were embedded in paraffin, sectioned, and transferred to slides for hematoxylin/eosin and immunohistochemical staining. A pathologist reviewed each case and delimited the region of interest, containing epithelial and stromal cells, for each specimen. A mouse tissue microarray was prepared at the Tissue Core Facility at the Moffitt Cancer Center. The mouse tissue microarray contained a total of 113 core samples, which included 10 uterine horns and 10 ovaries from both PBS and HCQ treated mice. As control specimens for the utilized antibodies, the TMA included mouse mammary tissue, liver, small intestine, and lymph nodes from a PBS treated mouse. Lesions were analyzed from independent blocks. Slides were stained using a Leica Bond RX automated system (Leica Biosytems, Buffalo Grove, Ill.) following manufacturers instructions with proprietary reagents. Slides were deparaffinized on an automated system with Dewax Solution (Leica Biosystems). […]

[1] = tested on: uterine horns and ovaries; assay: Murine tissue microarray H&E and immunohistochemistry (uterine horns, ovaries)
From the text: To determine whether HCQ treatment alters the histopathology (tissue organization) of the recipient's uterine horns and other tissues, a murine tissue microarray (TMA) comprised of 113 cores and performed H&E as well as immunohistochemical staining was developed. The TMA contained uterine horns and ovaries from 10 PBS- and 10 HCQ-treated mice, as well as a mammary gland, a kidney, a lymph node and a small intestine from a PBS-treated mouse for use as antibody controls. […] Estrogen receptor α (ERα) was primarily localized to the epithelial cell layer of the endometrial glands, while progesterone receptor (PR) appeared to be evenly distributed between the stromal and epithelial cell compartments. However, the PR staining was comparatively much weaker to that for ERα. […] LC3B expression appeared more intense in HCQ-treated mice relative to PBS-treated mice in both the stromal and epithelial compartments (FIGS. 19A-19X). […] Collected samples were immediately preserved in 10% neutral buffered formalin at the animal facility. Samples were embedded in paraffin, sectioned, and transferred to slides for hematoxylin/eosin and immunohistochemical staining. A pathologist reviewed each case and delimited the region of interest, containing epithelial and stromal cells, for each specimen. A mouse tissue microarray was prepared at the Tissue Core Facility at the Moffitt Cancer Center. The mouse tissue microarray contained a total of 113 core samples, which included 10 uterine horns and 10 ovaries from both PBS and HCQ treated mice. As control specimens for the utilized antibodies, the TMA included mouse mammary tissue, […], small intestine, and lymph nodes from a PBS treated mouse. Lesions were analyzed from independent blocks. Slides were stained using a Leica Bond RX automated system (Leica Biosytems, Buffalo Grove, Ill.) following manufacturers instructions with proprietary reagents. Slides were deparaffinized on an automated system with Dewax Solution (Leica Biosystems). The antigen retrieval method used for Progesterone Receptor (PR) was enzymatic with Enzyme Solution 1 at 15 min (Leica), for vimentin and Estrogen Receptor (ER) was heat induced with Epitope Retrieval Solution 1 at 20 min (Leica), for cytokeratin 8 (CK-8) was heat induced with Epitope Retrieval Solution at 10 min (Leica), and for LC3B was heat-induced with Epitope Retrieval Solution 1 at 10 min (Leica Biosystems). All antibodies were diluted in Dako antibody diluent (Carpenteria, Calif.): PR (# ab131486, 1:500, Abcam, Cambridge, Mass.), vimentin (#5741 (D21H3), 1:100, Cell Signaling, Danvers, Mass.), ERα (# ab32063 ([…]), 1:200, Abcam, Cambridge, Mass.), Cytokeratin-8 (# ab53280 (E[…]), 1:200, Abcam, Cambridge, Mass.), and LC3B (# ab51520, 1:1,500, Abcam, Cambridge, Mass.) and incubated for 30 min. The Leica Bond Polymer Refine Detection System was used with a polymer incubation for 8 min. Hematoxylin was used as counterstain and slides were dehydrated and covered with a coverslip, following standard histological protocol.

CCN(CCO)CCCC(C)Nc1ccnc2cc(Cl)ccc12 (stereo not shown) [HCQ, hydroxychloroquine]
macrophage numbers in peritoneal cavity (peritoneal macrophages): significant increase | stained lesions with absence of glandular components (endometriotic lesions): four out of the seven | luminal epithelium of the uterine horn endometrium (H&E, TMA) ([1]; HCQ-treated mice): irregular pattern | intensity or localization of IHC markers in ovaries ([1]; HCQ-treated relative to PBS-treated mice): no marked differences | ERα and PR staining pattern or intensity in uterine horns ([1]; PBS vs HCQ-treated mice): no differences | vimentin and CK8 localization in uterine horns ([1]; stromal and epithelial compartments, independently of HCQ treatment): appropriately localized | LC3B expression in uterine horns (IHC) ([1]; stromal and epithelial compartments, relative to PBS): more intense
